Structures are written as SMILES.

The target of this test is T1, human 11β-HSD1 (Homo sapiens, UniProt P28845).
T1 construct: made in house
T1 sequence (P28845 whole entry): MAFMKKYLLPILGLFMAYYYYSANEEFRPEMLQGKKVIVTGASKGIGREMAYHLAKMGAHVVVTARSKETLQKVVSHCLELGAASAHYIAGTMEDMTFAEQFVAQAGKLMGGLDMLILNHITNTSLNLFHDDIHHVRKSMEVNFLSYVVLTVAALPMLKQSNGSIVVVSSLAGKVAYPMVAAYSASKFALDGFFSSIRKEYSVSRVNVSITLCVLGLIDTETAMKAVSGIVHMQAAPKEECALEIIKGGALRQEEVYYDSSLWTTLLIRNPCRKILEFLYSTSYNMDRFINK
Nature of the test: hHSD1 SPA: inhibition of 11β-HSD1 (cortisone to cortisol conversion, scintillation proximity assay). It counts as biochemical. Particulars: recombinant human 11β-HSD1, SPA. Here is the method: Inhibition of 11β-HSD1 activity was examined by quantitative determination, by an SPA (scintillation proximity assay) system, of the suppressive action on the conversion from cortisone to cortisol using human 11β-HSD1 (hereinafter recombinant 11β-HSD1) expressed using a baculo-virus system as an enzyme source. For the reaction, a reagent was added to a 96-well plate (96-well Opti-plates™-96 (Packard)) to the following final concentration and a volume of 100 μl, and the reaction transpired at room temperature for 90 min. The reaction solution used was 0.1 μg/ml recombinant 11β-HSD1, 500 μM NADPH, 16 nM ^3H cortisone (Amersham Biosciences, […]) dissolved in 0.1% BSA (Sigma)-containing PBS and the test drug was 2 μl of a compound solution (dissolved in DMSO). […] After completion of the reaction, the plate was incubated overnight at room temperature and the radioactivity was measured by Topcount (Packard). […] The inhibition (%) of the test drug was calculated by ((value of control−value of test drug)/(value of control−value of positive control))×100(%). The IC50 value was analyzed using a computer-based curve fitting software.
Recombinant human, mouse and rat 11β-HSD1 were expressed in baculovirus expression system, isolated by affinity purification and used as the enzyme sources for cortisone to cortisol conversion in vitro. ^3H-Cortisone (Amersham Bioscience, […]. 49 Ci/mmol) was used as the substrate, and a monoclonal anti-cortisol antibody and the scintillation proximity assay (SPA) system were used to detect the product of the 11β-HSD1-catalyzed reaction, ^3H-cortisol. Reactions took place at room temperature for 90 min. in 96-well Opti-plates™-96 (Packard) in 100 μL volume with 2 μL test compounds or control in DMSO, 0.1 μg/mL 11β-HSD1 protein, 500 μM NADPH and 16 nM radioactive cortisone, in PBS buffer supplemented with 0.1% BSA (Sigma).
Plates were incubated at room temperature overnight before being read on a Topcount (Packard). The point of 50% inhibition of 11β-HSD1 enzyme activity (IC50) was determined by computer-based curve fitting.
In general terms: Scintillation proximity formats need no separation of bound from free tracer.
Broadly, the IC50 is the point on the concentration scale where inhibition reaches its midpoint. In the case of `Cc1ccc(C(=O)N(C2CC2)[C@H]2CC[C@H](CCO)CC2)c(F)c1` [Compound 1, N-cyclopropyl-2-fluoro-N-(trans-4-(2-hydroxyethyl)cyclohexyl)-4-methylbenzamide], the IC50 was found to be 1.94 nM. The result for `Cc1ccc(C(=O)N(C2CC2)[C@H]2CC[C@H](CC(C)(C)O)CC2)c(F)c1` [Compound 2, N-cyclopropyl-2-fluoro-N-(trans-4-(2-hydroxy-2-methylpropyl)cyclohexyl)-4-methylbenzamide] reads 6.89 nM; that for `O=C(c1ccccc1F)N(C1CC1)[C@H]1CC[C@H](CCO)CC1` [Compound 3, N-Cyclopropyl-2-fluoro-N-(trans-4-(2-hydroxyethyl)cyclohexyl)benzamide], 3.95 nM. With `O=C(c1cccc(F)c1)N(C1CC1)[C@H]1CC[C@H](CCO)CC1` [Compound 4, N-Cyclopropyl-3-fluoro-N-(trans-4-(2-hydroxyethyl)cyclohexyl)benzamide], the half-maximal inhibitory concentration (IC50) stood at 40.5 nM. On to `O=C(c1ccc(F)cc1)N(C1CC1)[C@H]1CC[C@H](CCO)CC1` [Compound 5, N-Cyclopropyl-4-fluoro-N-(trans-4-(2-hydroxyethyl)cyclohexyl)benzamide], for which the IC50 stood at 21.9 nM.

Turning to `O=C(c1ccc(Cl)cc1)N(C1CC1)[C@H]1CC[C@H](CCO)CC1` [Compound 6, 4-Chloro-N-cyclopropyl-N-(trans-4-(2-hydroxyethyl)cyclohexyl)benzamide], the IC50 is 6.9 nM. Turning to `O=C(c1cccc(F)c1F)N(C1CC1)[C@H]1CC[C@H](CCO)CC1` [Compound 7, N-Cyclopropyl-2,3-difluoro-N-(trans-4-(2-hydroxyethyl)cyclohexyl)benzamide], the concentration for half-maximal inhibition (IC50) was determined as 30.8 nM.

With `O=C(c1ccc(Br)cc1F)N(C1CC1)[C@H]1CC[C@H](CCO)CC1` [Compound 8, 4-Bromo-N-cyclopropyl-2-fluoro-N-(trans-4-(2-hydroxyethyl)cyclohexyl)benzamide], the IC50 is 1.06 nM. On to `COc1ccc(C(=O)N(C2CC2)[C@H]2CC[C@H](CCO)CC2)cc1` [Compound 9], for which the half-maximal inhibitory concentration (IC50) was 6.35 nM.

Consider `CC(C)c1ccc(C(=O)N(C2CC2)[C@H]2CC[C@H](CCO)CC2)cc1` [Compound 11, N-Cyclopropyl-4-isopropyl-N-(trans-4-(2-hydroxyethyl)cyclohexyl)benzamide], for which the IC50 is 0.94 nM. For `O=C(c1ccccc1)N(C1CC1)[C@H]1CC[C@H](CCO)CC1` [Compound 13, N-Cyclopropyl-N-(trans-4-(2-hydroxyethyl)cyclohexyl)benzamide], the half-inhibitory concentration (IC50) was determined as 18.3 nM. The result for `O=C(c1ccccc1F)N(C1CC1)[C@H]1CC[C@](CCO)(c2ccccn2)CC1` [Compound 14] reads 20.9 nM; that for `O=C(c1cccc(F)c1)N(C1CC1)[C@H]1CC[C@](CCO)(c2ccccn2)CC1` [Compound 15], 45.2 nM. The result for `O=C(c1ccc(F)cc1)N(C1CC1)[C@H]1CC[C@](CCO)(c2ccccn2)CC1` [Compound 16] reads above 100 nM; that for `O=C(c1ccc(Cl)cc1)N(C1CC1)[C@H]1CC[C@](CCO)(c2ccccn2)CC1` [Compound 19], 23 nM; that for `COc1cccc(C(=O)N(C2CC2)[C@H]2CC[C@](CCO)(c3ccccn3)CC2)c1` [Compound 23], 61.4 nM. Take `COc1ccc(C(=O)N(C2CC2)[C@H]2CC[C@](CCO)(c3ccccn3)CC2)cc1` [Compound 24]: the IC50 amounted to 59.4 nM. The result for `COc1ccc(C(=O)N(C2CC2)[C@H]2CC[C@](CCO)(c3ccccn3)CC2)c(F)c1` [Compound 25] reads 21.7 nM. The result for `Cc1ccc(C(=O)N(C2CC2)[C@H]2CC[C@](CCO)(c3ccccn3)CC2)cc1` [Compound 26] reads 11.4 nM; that for `CN(C)C(=O)c1ccc(C(=O)N(C2CC2)[C@H]2CC[C@](CCO)(c3ccccn3)CC2)cc1` [Compound 27], above 100 nM.

As to `CC(C)c1ccc(C(=O)N(C2CC2)[C@H]2CC[C@](CCO)(c3ccccn3)CC2)cc1` [Compound 28], the IC50 worked out at 7.2 nM. On to `CC(C)(C)c1ccc(C(=O)N(C2CC2)[C@H]2CC[C@](CCO)(c3ccccn3)CC2)cc1` [Compound 29], for which the IC50 worked out at 12.1 nM. The result for `O=C(c1ccc(C(F)(F)F)cc1)N(C1CC1)[C@H]1CC[C@](CCO)(c2ccccn2)CC1` [Compound 31] reads 54.3 nM; that for `CC(C(=O)N(C1CC1)[C@H]1CC[C@H](CCO)CC1)c1ccccc1` (stereo partly drawn) [Compound 32, N-Cyclopropyl-N-(trans-4-(2-hydroxyethyl)cyclohexyl)-2-phenylpropionamide], 52.1 nM.

The values above are taken from patent US7932421B2, “N-cyclohexyl benzamides and benzeneacetamides as inhibitors of 11-beta-hydroxysteroid dehydrogenases” (Amgen Inc., priority 2006, dated 2011).
